Test results reported in patent EP4603105A1, “PHARMACEUTICAL COMPOSITION CONTAINING CYCLIC COMPOUND HAVING SELECTIVE KRAS INHIBITORY EFFECT AGAINST HRAS AND NRAS” (CHUGAI SEIYAKU KABUSHIKI KAISHA, priority 2022, dated 2024).
Where two headings read alike, the source gives them in different places.

Columns and labels:
[1] = biological target: GDP-bound KRAS wild-type protein (Homo sapiens, UniProt P01116); experiment: Binding to KRAS by surface plasmon resonance (SPR), dissociation constant KD
How it was run: (§1)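 Biotinylated GDP-bound RAS was captured at about 100–300 RU. Running buffer: HBS pH 7.4, 10 mM MgCl2, 10 µM GDP, 1 mM DTT, 0.01% Tween 20, 4% DMSO.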

[2] = biological target: GDP-bound NRAS wild-type protein (Homo sapiens, UniProt P01111); experiment: Binding to NRAS by surface plasmon resonance (SPR), KD and KD ratio to KRAS
How it was run: as §1

HRAS wild-type protein = HRAS wild-type protein (Homo sapiens, UniProt P01112); experiment: Binding to HRAS by surface plasmon resonance (SPR), KD and KD ratio to KRAS
How it was run: as §1

[3] = tested on: human lung cancer strain NCI-H441; experiment: NCI-H441 cell proliferation inhibitory activity (CellTiter-Glo, 4 days); format: cell-based; conditions: read-out: NCl-H441 IC50
How it was run: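 Step one: dispense the test compound in serial DMSO dilutions. Step three: add the reagent and measure […].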

[4] = ratio of KD for GDP-bound NRAS wild-type protein to KD for KRAS
[5] = ratio of KD for HRAS wild-type protein to KD for KRAS
[6] = Single Cycle Kinetics, 1:1 binding model
[7] = ratio of KD with respect to GDP-bound NRAS wild-type protein to KD with respect to KRAS
[8] = ratio of KD with respect to HRAS wild-type protein to KD with respect to KRAS
[9] = 50% proliferation inhibitory concentration, four days

Sequence of HRAS wild-type protein (P01112 whole entry): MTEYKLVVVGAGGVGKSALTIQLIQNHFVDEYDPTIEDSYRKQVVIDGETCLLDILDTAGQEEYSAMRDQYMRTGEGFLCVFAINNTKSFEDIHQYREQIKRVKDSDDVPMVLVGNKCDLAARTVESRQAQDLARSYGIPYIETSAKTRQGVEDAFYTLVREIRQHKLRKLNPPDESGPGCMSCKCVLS
Sequence of GDP-bound NRAS wild-type protein (P01111 whole entry): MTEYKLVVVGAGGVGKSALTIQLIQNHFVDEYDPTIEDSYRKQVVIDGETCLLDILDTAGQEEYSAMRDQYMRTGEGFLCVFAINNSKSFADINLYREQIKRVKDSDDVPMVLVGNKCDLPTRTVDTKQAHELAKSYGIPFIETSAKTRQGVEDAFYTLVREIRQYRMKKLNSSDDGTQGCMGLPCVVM
Sequence of GDP-bound KRAS wild-type protein (P01116 1-188 isoform P01116-2): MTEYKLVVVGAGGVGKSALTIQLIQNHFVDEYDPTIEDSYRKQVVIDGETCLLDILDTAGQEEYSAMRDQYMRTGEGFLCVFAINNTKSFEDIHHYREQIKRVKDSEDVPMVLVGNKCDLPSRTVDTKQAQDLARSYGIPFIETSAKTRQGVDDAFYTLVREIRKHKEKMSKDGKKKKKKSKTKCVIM

Structure (SMILES)	Kd ([1]; Single Cycle Kinetics) [nM]	IC50 ([3]; NCI-H441 cells, 4 days) [nM]	Kd ([1]; 1:1 binding model) [nM]	Kd [1, 6] [nM]	IC50 [3, 9] [nM]	NRAS /KRAS [2, 4]	HRAS /KRAS (HRAS wild-type protein; [5])	NRAS /KRAS [2, 7]	HRAS /KRAS (HRAS wild-type protein; [8])
CCO[C@@H]1C[C@H]2C(=O)NC3(CC(C)(C)C3)C(=O)N(C)[C@@H](C(CC)CC)C(=O)N(C)[C@H](C(=O)N(C)C)CC(=O)N(C)[C@@H](CC3CC3)C(=O)N[C@@H]([C@@H](C)CC)C(=O)N(C)CC(=O)N(C)[C@H]3C/C=C\CCN(C3=O)[C@@H](CC3CCC(F)(F)CC3)C(=O)N(C)CC(=O)N[C@@H](CCc3cc(F)c(C(F)(F)F)c(F)c3)C(=O)N2C1 [PP2485]	–	55.5	0.78	–	–	A (a compound having 10 or more and less than 20 is denoted as A)	A (a compound having 10 or more and less than 20 is denoted as A)	–	–
C#CCN1CC(=O)N(C)[C@H]2C/C=C\CCN(C2=O)[C@@H](Cc2ccc(C(F)F)cc2)C(=O)N(C)CC(=O)N[C@@H](CCc2ccc(C(F)(F)F)cc2Cl)C(=O)N2C[C@H](OC(C)C)C[C@H]2C(=O)N(C)C2(CCC2)C(=O)N(C)[C@@H](C(CC)CC)C(=O)N(C)[C@H](C(=O)N(C)C)CC(=O)N(C)[C@@H](CC(C)C)C(=O)N[C@@H]([C@@H](C)CC)C1=O [PP3495]	0.72	37.9	–	–	–	AA (a compound having 20 or more is denoted as AA)	A (a compound having 10 or more and less than 20 is denoted as A)	–	–
CCCO[C@@H]1C[C@H]2C(=O)NC3(CC(C)(C)C3)C(=O)N(C)[C@@H](C3CCCC3)C(=O)N(C)[C@H](C(=O)N(C)CC)CC(=O)N(C)[C@@H](COCC)C(=O)N[C@@H]([C@@H](C)CC)C(=O)N3C[C@@H](C)C[C@H]3C(=O)N(C)[C@H]3C/C=C\CCN(C3=O)[C@@H](Cc3ccc(C)cc3)C(=O)N(C)CC(=O)N[C@@H](CCc3ccc(C(F)(F)F)c(Cl)c3)C(=O)N2C1 [PP3464]	4	162	–	–	–	A (a compound having 10 or more and less than 20 is denoted as A)	A (a compound having 10 or more and less than 20 is denoted as A)	–	–
CCO[C@@H]1C[C@H]2C(=O)NC3(CC(C)(C)C3)C(=O)N(C)[C@@H](C(CC)CC)C(=O)N(C)[C@H](C(=O)N(C)C)CC(=O)N(C)[C@@H](C(C)C)C(=O)N[C@@H]([C@@H](C)CC)C(=O)N(C)CC(=O)N(C)[C@H]3C/C=C\CCN(C3=O)[C@@H](CC3CCC(F)(F)CC3)C(=O)N(C)CC(=O)N[C@@H](CCc3ccc(C(F)(F)F)c(OC)c3)C(=O)N2C1 [PP2477]	–	127	1.8	–	–	A (a compound having 10 or more and less than 20 is denoted as A)	A (a compound having 10 or more and less than 20 is denoted as A)	–	–
CCC[C@@H]1NC(=O)C[C@@H](C(=O)N(C)C)N(C)C(=O)[C@H](C2CCCC2)N(C)C(=O)C2(CC(C)(C)C2)NC(=O)[C@@H]2C[C@@H](OCC)CN2C(=O)[C@H](CCc2ccc(C(F)(F)F)c(OC)c2)NC(=O)CN(C)C(=O)[C@H](Cc2ccc(C(F)(F)F)cc2)N2CC/C=C\C[C@@H](C2=O)N(C)C(=O)CN(C)C(=O)[C@H]([C@@H](C)CC)NC1=O [PP3447]	0.16	19.1	–	–	–	A (a compound having 10 or more and less than 20 is denoted as A)	A (a compound having 10 or more and less than 20 is denoted as A)	–	–
CC[C@H](C)[C@@H]1NC(=O)[C@H](CC)N(C)C(=O)C[C@@H](C(=O)N(C)C)N(C)C(=O)[C@H](C2CCCC2)N(C)C(=O)C2(CCC2)NC(=O)[C@@H]2CCCN2C(=O)[C@H](CCc2cc(F)c(C(F)(F)F)c(F)c2)NC(=O)CN(C)C(=O)[C@H](CC2CCCCC2)N2CC/C=C\C[C@@H](C2=O)N(C)C(=O)CN(C)C1=O [PP1475]	–	–	–	0.55	48.9	–	–	A (a compound having 10 or more and less than 20 is denoted as A)	A (a compound having 10 or more and less than 20 is denoted as A)
CCOC[C@H]1C(=O)N[C@@H]([C@@H](C)CC)C(=O)N(C)CC(=O)N(C)[C@H]2C/C=C\CCN(C2=O)[C@@H](CC2CCC(F)(F)CC2)C(=O)N(C)CC(=O)N[C@@H](CCc2ccc(C(F)(F)F)c(Cl)c2)C(=O)N2C[C@H](OCC)C[C@H]2C(=O)NC2(CC(C)(C)C2)C(=O)N(C)[C@@H](C(CC)CC)C(=O)N(C)[C@H](C(=O)N(C)C)CC(=O)N1C [PP2460]	–	18.7	0.71	–	–	A (a compound having 10 or more and less than 20 is denoted as A)	A (a compound having 10 or more and less than 20 is denoted as A)	–	–
CCC[C@@H]1NC(=O)C[C@@H](C(=O)N(C)C)N(C)C(=O)[C@H](C2CCCC2)N(C)C(=O)C2(CC(C)(C)C2)NC(=O)[C@@H]2C[C@@H](OCC)CN2C(=O)[C@H](CCc2ccc(C(F)(F)F)c(Cl)c2)NC(=O)CN(C)C(=O)[C@H](Cc2ccc(C(F)(F)F)cc2)N2CC/C=C\C[C@@H](C2=O)N(C)C(=O)CN(C)C(=O)[C@H]([C@@H](C)CC)NC1=O [PP3454]	0.3	26.2	–	–	–	A (a compound having 10 or more and less than 20 is denoted as A)	A (a compound having 10 or more and less than 20 is denoted as A)	–	–
CCO[C@@H]1C[C@H]2C(=O)NC3(CCC3)C(=O)N(C)[C@@H](C3CCCC3)C(=O)N(C)[C@H](C(=O)N(C)C)CC(=O)N(C)[C@@H](CC(C)(C)C)C(=O)N[C@@H]([C@@H](C)CC)C(=O)N(C)CC(=O)N(C)[C@H]3C/C=C\CCN(C3=O)[C@@H](CC3CCCCC3)C(=O)N(C)CC(=O)N[C@@H](CCc3cc(F)c(C(F)(F)F)c(F)c3)C(=O)N2C1 [PP1474]	–	–	–	0.23	48.2	–	–	A (a compound having 10 or more and less than 20 is denoted as A)	A (a compound having 10 or more and less than 20 is denoted as A)
CCC[C@H]1C(=O)N[C@@H](CC(C)C)C(=O)N(CC)CC(=O)N(C)[C@H]2C/C=C\CCN(C2=O)[C@@H](Cc2ccc(C)cc2)C(=O)N(C)CC(=O)N[C@@H](CCc2ccc(C(F)(F)F)c(Cl)c2)C(=O)N2C[C@H](OCC)C[C@H]2C(=O)NC2(CCC2)C(=O)N(C)[C@@H](C2CCCC2)C(=O)N(C)[C@H](C(=O)N(C)C)CC(=O)N1C [PP2545]	–	279	4.3	–	–	A (a compound having 10 or more and less than 20 is denoted as A)	A (a compound having 10 or more and less than 20 is denoted as A)	–	–

Continued, in another order:

Kd ([1]; Single Cycle Kinetics) [nM]	IC50 ([3]; NCI-H441 cells, 4 days) [nM]	Kd ([1]; 1:1 binding model) [nM]	Kd [1, 6] [nM]	IC50 [3, 9] [nM]	Structure (SMILES)	NRAS /KRAS [2, 4]	HRAS /KRAS (HRAS wild-type protein; [5])	NRAS /KRAS [2, 7]	HRAS /KRAS (HRAS wild-type protein; [8])
1.5	66.1	–	–	–	C=CC[C@H]1C(=O)N(C)[C@H](C(=O)N(C)C)CC(=O)N(C)[C@@H](CCC)C(=O)N[C@@H]([C@@H](C)CC)C(=O)N(C)CC(=O)N(C)[C@H]2C/C=C\CCN(C2=O)[C@@H](Cc2ccc(C(F)(F)F)cc2)C(=O)N(C)CC(=O)N[C@@H](CCc2cc(F)c(C(F)(F)F)c(F)c2)C(=O)N2C[C@H](OCC)C[C@H]2C(=O)N(C)C2(CCC2)C(=O)N1C [PP3336]	A (a compound having 10 or more and less than 20 is denoted as A)	A (a compound having 10 or more and less than 20 is denoted as A)	–	–
0.086	3.8	–	–	–	C#CC[C@H]1C(=O)N[C@@H]([C@@H](C)CC)C(=O)N(C2CC2)CC(=O)N(C)[C@H]2C/C=C\CCN(C2=O)[C@@H](Cc2ccc(C(F)(F)F)cc2)C(=O)N(C)CC(=O)N[C@@H](CCc2ccc(C(F)(F)F)c(Cl)c2)C(=O)N2C[C@H](OCC)C[C@H]2C(=O)N(C)C2(CCC2)C(=O)N(C)[C@@H](C2CCCC2)C(=O)N(C)[C@H](C(=O)N(C)C)CC(=O)N1C [PP3246]	A (a compound having 10 or more and less than 20 is denoted as A)	A (a compound having 10 or more and less than 20 is denoted as A)	–	–
0.29	10.9	–	–	–	CCC[C@H]1C(=O)N[C@@H]([C@@H](C)CC)C(=O)N2CCC[C@H]2C(=O)N(C)[C@H]2C/C(F)=C\CCN(C2=O)[C@@H](Cc2ccc(C)cc2)C(=O)N(C)CC(=O)N[C@@H](CCc2cc(F)c(C(F)(F)F)c(F)c2)C(=O)N2C[C@H](OCC)C[C@H]2C(=O)N(C)C2(CCC2)C(=O)N(C)[C@@H](C2CCCC2)C(=O)N(C)[C@H](C(=O)N(C)C)CC(=O)N1C [PP3526]	B (a compound having 3 or more and less than 10 is denoted as B)	B (a compound having 3 or more and less than 10 is denoted as B)	–	–
4	105	–	–	–	CCC[C@H]1C(=O)N[C@@H]([C@@H](C)CC)C(=O)N2CCCCC[C@H]2C(=O)N(C)[C@H]2C/C=C\CCN(C2=O)[C@@H](Cc2ccc(C(F)(F)F)cc2)C(=O)N(C)CC(=O)N[C@@H](CCc2ccc(C(F)(F)F)c(OC)c2)C(=O)N2C[C@H](OCC)C[C@H]2C(=O)N(C)C2(CCC2)C(=O)N(C)[C@@H](C2CCCC2)C(=O)N(C)[C@H](C(=O)N(C)C)CC(=O)N1C [PP3276]	A (a compound having 10 or more and less than 20 is denoted as A)	A (a compound having 10 or more and less than 20 is denoted as A)	–	–
0.028	3.9	–	–	–	C#CC[C@H]1C(=O)N[C@@H]([C@@H](C)CC)C(=O)N(C)CC(=O)N(C)[C@H]2C/C=C\CCN(C2=O)[C@@H](Cc2ccc(C)cc2)C(=O)N(C)CC(=O)N[C@@H](CCc2ccc(C(F)(F)F)c(OC)c2)C(=O)N2C[C@H](OCC)C[C@H]2C(=O)N(C)C2(CCC2)C(=O)N(C)[C@@H](C2CCCC2)C(=O)N(C)[C@H](C(=O)N(C)C)CC(=O)N1C [PP3236]	A (a compound having 10 or more and less than 20 is denoted as A)	B (a compound having 3 or more and less than 10 is denoted as B)	–	–
